Experimental data from article PMC6066528 (Frontiers in Pharmacology, 2018).

Legend:
CYP2D6 [1] = molecular target: T1, CYP2D6 (Homo sapiens, UniProt P10635); settings: primary human hepatocytes; without reaching statistical significance; ref Madan et al., 2003; cited from earlier work
CYP3A4 = test: Metoprolol metabolism by human liver microsomes with ketoconazole; type: in vitro ADME; settings: pooled human liver microsomes, pH 7.4, probe metoprolol 25 μM
Description: (§1) Microsomes and supersomes were stored at −80°C until used.
(§2) For inhibition studies, the reaction mixture was pre-incubated with the specific inhibitors (concentrations indicated in the figures) for 10 min prior to the addition of test compounds and NADPH. […] Following the incubation in the absence (control) or presence of inhibitors, the reactions were terminated at selected time-points by transferring 50 μL of the incubation mixture into a matrix autosampler vial, to which a threefold volume of ice-cold methanol (containing the internal standards) was added. […] The formation rate (pmol/min/pmol P450) in the absence and the presence of the inhibitors was calculated from the linear parts of the concentration-time curves and expressed as an absolute value or as a percentage relative to the control values.
(§3) Chromatographic separation was performed on a Shimadzu HPLC system (Shimadzu AG, Reinach, Switzerland), coupled to a triple quadrupole tandem mass spectrometer (API4000 or API5500, AB/MDS Sciex, Concord, Canada), operating in positive electrospray ionization mode.
(§4) The CYP activities were determined as the respective metabolite formation rates corresponding to the slope in the metabolite concentration versus time graphs.

[2] = Metoprolol metabolism by human liver microsomes without inhibitor; type: in vitro ADME; settings: inhibition studies using human liver microsomes; mean ± 95%CI
Description: as §1, §2, §3, §4

[3] = cited from earlier work
CYP2D6 [4] = molecular target: T1, CYP2D6; settings: ref Johnson and Burlew, 1996; cited from earlier work
beta-blocking activity = test system: beta-blocking activity; set-up: method as in Regardh et al., 1974; settings: both active metabolites together; ref Regardh et al., 1974; cited from earlier work
CYP2D6 [5] = molecular target: T1, CYP2D6; test: Metoprolol metabolism by human liver microsomes with quinidine
Description: as §1, §2, §3, §4

[6] = molecular target: recombinant human CYP3A4 supersomes (Homo sapiens, UniProt P08684)
recombinant human CYP3A4 supersomes, sequence (P08684 whole entry): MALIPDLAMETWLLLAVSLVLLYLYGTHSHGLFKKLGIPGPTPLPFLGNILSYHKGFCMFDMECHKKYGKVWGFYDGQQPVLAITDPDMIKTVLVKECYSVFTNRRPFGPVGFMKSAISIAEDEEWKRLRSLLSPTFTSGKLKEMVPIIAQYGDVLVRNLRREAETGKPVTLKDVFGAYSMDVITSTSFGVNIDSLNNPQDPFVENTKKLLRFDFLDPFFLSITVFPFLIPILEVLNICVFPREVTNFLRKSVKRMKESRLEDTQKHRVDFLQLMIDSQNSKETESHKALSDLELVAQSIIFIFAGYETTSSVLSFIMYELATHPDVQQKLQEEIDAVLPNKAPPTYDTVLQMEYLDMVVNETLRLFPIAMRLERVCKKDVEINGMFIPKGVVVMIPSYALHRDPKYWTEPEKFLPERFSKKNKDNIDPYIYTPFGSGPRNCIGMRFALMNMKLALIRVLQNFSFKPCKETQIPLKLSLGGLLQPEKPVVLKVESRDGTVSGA
Description: as §1, §2, §3, §4

CYP2D6 mRNA [7] = test: rt-PCR quantification of CYP2D6 mRNA in HepaRG cells after rifampicin; type: cell-based, human
Description: HepaRG cells were purchased from Biopredic International (Rennes, France) as undifferentiated cryopreserved cells with the associated medium. Freshly split HepaRG cells were seeded at 9000 cells/well in 96-well plates (or 0.05 × 10^6 cells/well in 24-well plates) and treated over the course of the next 4 weeks as previously described ([Aninat et al., 2006]).
(§5) A total of 350 μL of RLT buffer (Qiagen, Hombrechtikon, Switzerland) was used to lyse the respective liver cell models, after which the lysate was transferred to Qiashredder columns and centrifuged for 2 min at 13,000 rpm. From the eluate, total RNA was extracted and purified according to the manufacturer’s instructions (Qiagen, RNeasy mini extraction kit). The concentration of the extracted RNA was measured spectrophotometrically at 260 nm on a NanoDrop 2000 (Thermo Fisher Scientific, Wohlen, Switzerland). cDNA was reverse transcribed from the isolated RNA using the Qiagen omniscript system. For quantitative rt-PCR, 10 ng cDNA was used. […] Quantification of mRNA expression levels was performed using the comparative-threshold cycle method ([Livak and Schmittgen, 2001]).

CYP2D6 mRNA [8] = test: rt-PCR quantification of CYP2D6 mRNA in primary human hepatocytes after rifampicin; type: cell-based; settings: primary human hepatocytes Lot #Hu8119; rifampicin 20 μM 48 h
Description: Primary cryopreserved human hepatocytes (Life Technologies, Lot #Hu8119 and Lot #Hu8124) were plated at 0.05 × 10^6 cells/well in collagen type-1 precoated 96-well plates (or 0.25 × 10^6 cells/well in 24-well plates) in William’s E medium supplemented with 10% FCS (v/v), 1% L-glutamine 200 mM (v/v), 1% Pen Strep (v/v), 0.1% dexamethasone 100 μM (v/v), and 0.1% insulin 100 μM (v/v), and then incubated at 37°C in the presence of 5% CO2 and 95% humid air.
as §5

[9] = test system: primary human hepatocytes
Description: Experimental control culture wells were treated with solvent [DMSO, 0.1% (v/v)] alone. […] The bottoms of the wells were scraped using a pipette tip, after which the contents were transferred to an autosampler vial.
as §3, §4
For induction experiments, metabolite formation rates were determined as described above, and the fold change versus the basal conditions was calculated as the ratio of the metabolite formation rate in wells exposed to an inducer versus formation rates in control wells.

CYP2D6 [10] = molecular target: T1, CYP2D6; set-up: Pooled human liver microsomes (HLM; Lot #38289); tissue Corning Life science Lot #38289; host or cells: pooled human liver microsomes; method as in Glaeser et al., 2005; settings: enterocytes of human subjects; 600 mg rifampicin for 10 days; without reaching statistical significance; ref Glaeser et al., 2005; cited from earlier work
[11] = In vivo assessment of CYP induction (Basel phenotyping cocktail before and after rifampicin); settings: 15 healthy volunteers, rifampicin 600 mg per day for 7 days
Description: We used the ratio between the induced and the basal state of the Cl/F of midazolam as a marker of CYP3A4 induction.
Experiments were carried out 5 times unless stated otherwise. Means were compared with the two-tailed Student’s t-test using GraphPad Prism 6.0 (GraphPad Software, San Diego, CA, United States). Data are presented as mean ± SD unless stated otherwise. Induction levels above twofold with statistically significant differences (p < 0.05) were considered relevant.

T1 sequence (P10635 whole entry): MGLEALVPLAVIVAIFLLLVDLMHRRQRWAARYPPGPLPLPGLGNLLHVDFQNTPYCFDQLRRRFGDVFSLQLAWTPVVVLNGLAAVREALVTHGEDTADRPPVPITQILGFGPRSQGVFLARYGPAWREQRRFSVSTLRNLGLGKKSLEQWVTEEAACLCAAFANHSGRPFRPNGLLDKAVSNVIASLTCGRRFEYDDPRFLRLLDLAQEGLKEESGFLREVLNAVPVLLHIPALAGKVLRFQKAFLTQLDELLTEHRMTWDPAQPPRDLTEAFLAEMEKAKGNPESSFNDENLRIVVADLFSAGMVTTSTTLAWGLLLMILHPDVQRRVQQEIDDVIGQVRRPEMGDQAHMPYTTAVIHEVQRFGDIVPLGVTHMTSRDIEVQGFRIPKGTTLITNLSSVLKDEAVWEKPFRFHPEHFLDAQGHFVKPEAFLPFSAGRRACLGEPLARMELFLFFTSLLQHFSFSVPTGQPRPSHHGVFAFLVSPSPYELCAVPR

## CCC1(c2ccccc2)C(=O)NC(=O)NC1=O [phenobarbital]
CYP2D6 [1]
  increase of the activity of dextromethorphan O-demethylation: almost identical effect

## CC(=O)N1CCN(c2ccc(OCC3COC(Cn4ccnc4)(c4ccc(Cl)cc4Cl)O3)cc2)CC1 (centres unmarked) [ketoconazole]
CYP3A4
  inhibition at 1 μM: 9.9 to 17.5%

## COCCc1ccc(OCC(O)CNC(C)C)cc1 (centres unmarked) [metoprolol]
[2]
  contribution of CYP3A4, 2B6, and 2C9 together to N-dealkylation of metoprolol: 7.6 ± 1.7%
  contribution of CYP3A4, 2B6, and 2C9 together to O-demethylation of metoprolol: 19.0 ± 2.6%
  contribution of CYP3A4, 2B6, and 2C9 together to α-hydroxylation of metoprolol: 4.0 ± 0.7%
[3]; oral, ref Regardh and Johnsson, 1980
  bioavailability: approximately 50%
CYP2D6 [4]
  part of orally administered metoprolol metabolized by CYP2D6: Approximately 70%

## CC(C)NCC(O)COc1ccc(CCO)cc1 (centres unmarked) [O-demethylmetoprolol]
beta-blocking activity
  contribution to the total beta-blocking activity of metoprolol: approximately 10%

## C=C[C@H]1C[N@@]2CC[C@H]1C[C@@H]2[C@@H](O)c1ccnc2ccc(OC)cc12 [quinidine]
CYP2D6 [5]; HLM, quinidine 1 μM
  block of formation of the phenylacetate metabolite from O-demethylated metoprolol: blocked completely
CYP2D6 [5]; human, pooled human liver microsomes, pH 7.4, probe metoprolol 25 μM
  activity at 1 μM: 8%

## COc1ccc2c(c1)[C@]13CCCC[C@@H]1[C@H](C2)N(C)CC3 [dextromethorphan]
[6]; rhCYP3A4 supersomes, check for CYP2D6 activity, data not shown
  conversion to dextrorphan: not quantifiable

## CO[C@H]1/C=C/O[C@@]2(C)Oc3c(C)c(O)c4c(O)c(c(/C=N/N5CCN(C)CC5)c(O)c4c3C2=O)NC(=O)/C(C)=C\C=C\[C@H](C)[C@H](O)[C@@H](C)[C@@H](O)[C@@H](C)[C@H](OC(C)=O)[C@@H]1C [rifampicin]
CYP2D6 mRNA [7]; HepaRG cells, rifampicin 20 μM for 48 h
  induction of CYP2D6 mRNA: not induced
CYP2D6 mRNA [7]; both cell models (HepaRG cells and primary human hepatocytes), 20 μM rifampicin
  effect on CYP2D6 mRNA: not affected
CYP2D6 mRNA [8]
  CYP2D6 mRNA expression levels: no increase
[9]; primary human hepatocytes Lot #Hu8124, rifampicin 20 μM 48 h
  increase in O-demethylation of metoprolol: 1.4 factor
[9]; primary human hepatocytes treated with rifampicin (Figure 3D, lot #Hu8124)
  increase in production of α-OH-metoprolol: 75%
CYP2D6 [1]
  increase of the activity of dextromethorphan O-demethylation: 1.3 factor
CYP2D6 [10]
  increase of CYP2D6 protein expression: 1.6 factor

## COCC(O)c1ccc(OCC(O)CNC(C)C)cc1 (stereo not drawn) [α-OH-metoprolol]
beta-blocking activity
  contribution to the total beta-blocking activity of metoprolol: approximately 10%
[11]; 12.5 mg metoprolol oral, statistically not significant
  increase in α-OH-metoprolol formation / AUC after rifampicin: 9%

## Cc1ncc2n1-c1ccc(Cl)cc1C(c1ccccc1F)=NC2 [midazolam]
[6]; recombinant enzyme
  formation of 1′-OH-midazolam from midazolam by CYP3A4 overexpressing supersomes: rapid
[11]; 2 mg midazolam, all subjects
  clearance of midazolam after rifampicin: increase

## COCCc1ccc(OC[C@H](O)CNC(C)C)cc1 [R-metoprolol]
[3]; human, in vivo
  clearance higher than that of S-metoprolol: 40%
